From US8563741B2, “CDK inhibitors containing a zinc binding moiety” (Curis, Inc., priority 2007, dated 2013)

Experiments:
HDAC = HDAC fluorimetric assay kit (AK-500, Biomol), HeLa nuclear extract; assay type: biochemical
Experimental: HDAC inhibitors were screened using an HDAC fluorimetric assay kit (AK-500, Biomol, Plymouth Meeting, Pa.). […] Each assay was setup as follows: Defrosted all kit components and kept on ice until use. Diluted HeLa nuclear extract 1:29 in Assay Buffer (50 mM Tris/Cl, pH 8.0, 137 mM NaCl, 2.7 mM KCl, 1 mM MgCl2). Prepared dilutions of Trichostatin A (TSA, positive control) and tested compounds in assay buffer (5× of final concentration). Diluted Fluor de LysTM Substrate in assay buffer to 100 uM (50 fold=2× final). Diluted Fluor de LysTM developer concentrate 20-fold (e.g. 50 μl plus 950 μl Assay Buffer) in cold assay buffer. Second, diluted the 0.2 mM Trichostatin A 100-fold in the 1× Developer (e.g. 10 μl in 1 ml; final Trichostatin A concentration in the 1× Developer=2 μM; final concentration after addition to HDAC/Substrate reaction=1 μM). Added Assay buffer, diluted trichostatin A or test inhibitor to appropriate wells of the microtiter plate. Added diluted HeLa extract or other HDAC sample to all wells except for negative controls. Allowed diluted Fluor de LysTM Substrate and the samples in the microtiter plate to equilibrate to assay temperature (e.g. 25 or 37° C. Initiated HDAC reactions by adding diluted substrate (25 μl) to each well and mixing thoroughly. Allowed HDAC reactions to proceed for 1 hour and then stopped them by addition of Fluor de LysTM Developer (50 μl). Incubated plate at room temperature (25° C.) for 10-15 min. Read samples in a microtiter-plate reading fluorimeter capable of excitation at a wavelength in the range 350-380 nm and detection of emitted light in the range 440-460 nm.

CDK2/cyclinE = target: T1, CDK2/cyclinE (Homo sapiens, UniProt P24941); assay: CDK activity assay with p33 ATP, CDK2/cyclinE; assay type: biochemical; settings: 1 μM ATP
T1 construct: C-terminal 6His-tagged, recombinant full-length CDK2 (MW=34 kDa); 6His (C); made in house; host or cells: Sf21 cells (baculovirus)
Experimental: CDK2/cyclinE (Accession Number for CDK2; EMBL M68520, for cyclinE1; GenBank NM_001238):
C-terminal 6His-tagged, recombinant full-length CDK2 (MW=34 kDa) in complex with N-terminal GST-tagged, recombinant full-length cyclinE1 (MW=74 kDa) were expressed with baculovirus system in Sf21 cells. Recombinant proteins were purified using Ni2+/NTA agarose and the purity of recombinant protein complex was measured to be around 76% by SDS-PAGE and Coomassie blue staining. Specific Activity of recombinant CDK2/cyclinE was 1336 U/mg, where one unit of CDK2/cylinE1 activity is defined as 1 nmol phosphate incorporated into 0.1 mg/ml histone H1 per minute at 30° C. with a final ATP concentration of 100 μM. Enzyme was stored with concentration of 0.1 mg/ml in 50 mM Tris/HCl pH 7.5, 150 mM NaCl, 0.03% Brij-35, 0.1 mM EGTA, 0.2 mM PMSF, 1 mM benzamidine, 0.1% 2-mercaptoethanol, 270 mM sucrose.

Row | SMILES | IC50 (HDAC) [nM] | IC50 (CDK2/cyclinE) [nM] | melting point [°C] | CDK2/cyclinE IC50 (CDK2/cyclinE)
1 | CC(C)(C)c1cnc(CSc2cnc(NC(=O)c3ccc(OCCCC(=O)NO)cc3)s2)o1 [Compound 39] | 100 to 1000 | < 100 | – | –
2 | CC(C)(C)c1cnc(CSc2cnc(NC(=O)CCCNCCCCCCC(=O)NO)s2)o1 [Compound 17, 7-(4-(5-((5-tert-butyloxazol-2-yl)methylthio)-thiazol-2-ylamino)-4-oxobutylamino)-N-hydroxyheptanamide] | 100 to 1000 | < 100 | – | –
3 | CC(C)(C)c1cnc(CSc2cnc(NC(=O)C3CCN(CCCC(=O)NO)CC3)s2)o1 [Compound 1, N-(5-((5-tert-butyloxazol-2-yl)methylthio)thiazol-2-yl)-1-(4-(hydroxyamino)-4-oxobutyl)piperidine-4-carboxamide] | > 10000 | < 100 | 176 to 180 | –
4 | CC(C)(C)c1cnc(CSc2cnc(NC(=O)Oc3ccc(OCCCC(=O)NO)cc3)s2)o1 [Compound 28, 4-(4-(hydroxyamino)-4-oxobutoxy)phenyl-5-((5-tert-butyloxazol-2-yl)methylthio)thiazol-2-ylcarbamate] | – | < 100 | – | –
5 | CC(C)(C)c1cnc(CSc2cnc(NS(=O)(=O)c3ccc(C(=O)NO)cc3)s2)o1 [Compound 33, 4-(N-(5-((5-tert-butyloxazol-2-yl)methylthio)-thiazol-2-yl)sulfamoyl)-N-hydroxybenzamide] | 100 to 1000 | – | – | No
6 | CC(C)(C)c1cnc(CSc2cnc(NC(=O)c3ccc(OCCCCCCC(=O)NO)cc3)s2)o1 [Compound 40] | 100 to 1000 | < 100 | – | –
7 | CC(C)(C)c1cnc(CSc2cnc(NC(=O)Nc3ccc(OCCCC(=O)NO)cc3)s2)o1 [Compound 29, 4-(4-(3-(5-((5-Tert-butyloxazol-2-yl)methylthio)-thiazol-2-yl)ureido)phenoxy)-N-hydroxybutanamide] | 100 to 1000 | < 100 | – | –
8 | CC(C(=O)Nc1ncc(SCc2ncc(C(C)(C)C)o2)s1)c1ccc(OCCCC(=O)NO)cc1 (centres unmarked) [Compound 31, 4-(4-(1-(5-((5-Tert-butyloxazol-2-yl)methylthio)-thiazol-2-ylamino)-1-oxopropan-2-yl)phenoxy)-N-hydroxybutanamide] | < 100 | < 100 | – | –
9 | CC(C)(C)c1cnc(CSc2cnc(NS(=O)(=O)c3cccc(/C=C/C(=O)NO)c3)s2)o1 [Compound 32, (E)-3-(3-(N-(5-((5-tert-butyloxazol-2-yl)methylthio)thiazol-2-yl)sulfamoyl)phenyl)-N-hydroxyacrylamide] | < 100 | 1000 to 10000 | – | –
10 | CC(C)(C)c1cnc(CSc2nnc(NC(=O)Cc3ccc(OCCCC(=O)NO)cc3)s2)o1 [Compound 30, 4-(4-(2-(5-((5-tert-butyloxazol-2-yl)methylthio)-1,3,4-thiadiazol-2-ylamino)-2-oxoethyl)phenoxy)-N-hydroxybutanamide] | 100 to 1000 | 1000 to 10000 | – | –
11 | CC(C)(C)c1cnc(CSc2cnc(NS(=O)(=O)c3ccc(/C=C/C(=O)NO)cc3)s2)o1 [Compound 34, (E)-3-(4-(N-(5-((5-tert-butyloxazol-2-yl)methylthio)-thiazol-2-yl)sulfamoyl)phenyl)-N-hydroxyacrylamide] | < 100 | – | – | No
12 | CC(Sc1cnc(NC(=O)Cc2ccc(OCCCC(=O)NO)cc2)s1)c1ncc(C(C)(C)C)o1 (centres unmarked) [Compound 26, 4-(4-(2-(5-(1-(5-Tert-butyloxazol-2-yl)ethylthio)-thiazol-2-ylamino)-2-oxoethyl)phenoxy)-N-hydroxybutanamide] | 100 to 1000 | < 100 | – | –
13 | CC(C)(C)c1cnc(CSc2cnc(NC(=O)c3ccc(/C=C/C(=O)NO)cc3)s2)o1 [Compound 18, (E)-N-(5-((5-tert-butyloxazol-2-yl)methylthio)thiazol-2-yl)-4-(3-(hydroxylamino)-3-oxoprop-1-enyl)benzamide] | 100 to 1000 | < 100 | – | –
14 | CC(C)(C)c1cnc(CSc2cnc(NC(=O)C3CCN(CCCCCCC(=O)NO)CC3)s2)o1 [Compound 4, N-(5-((5-tert-butyloxazol-2-yl)methylthio)thiazol-2-yl)-1-(7-(hydroxyamino)-7-oxoheptyl)piperidine-4-carboxamide] | 100 to 1000 | < 100 | 113 to 115 | –
15 | CC(C)(C)c1cnc(CSc2cnc(NC(=O)C3CCN(CCCCCC(=O)NO)CC3)s2)o1 [Compound 3, N-(5-((5-tert-butyloxazol-2-yl)methylthio)thiazol-2-yl)-1-(6-(hydroxyamino)-6-oxohexyl)piperidine-4-carboxamide] | 1000 to 10000 | < 100 | 127 to 130 | –
16 | CC(C)(C)c1cnc(CSc2cnc(NC(=O)Cc3ccc(OCCCCC(=O)NO)cc3)s2)o1 [Compound 10, 5-(4-(2-(5-((5-tert-butyloxazol-2-yl)methylthio)thiazol-2-ylamino)-2-oxoethyl)phenoxy)-N-hydroxypentanamide] | 100 to 1000 | < 100 | – | –
17 | CC(C)(C)c1cnc(CSc2cnc(NC(=O)C3CCN(CCCCC(=O)NO)CC3)s2)o1 [Compound 2, N-(5-((5-tert-butyloxazol-2-yl)methylthio)thiazol-2-yl)-1-(5-(hydroxyamino)-5-oxopentyl)piperidine-4-carboxamide] | 1000 to 10000 | < 100 | 93 to 97 | –
18 | CC(C)(C)c1cnc(CSc2cnc(NC(=O)Cc3ccc(OCCCCCC(=O)NO)cc3)s2)o1 [Compound 11] | 100 to 1000 | < 100 | – | –
19 | CC(C)(C)c1cnc(CSc2cnc(NC(=O)CCCNCCCCCC(=O)NO)s2)o1 [Compound 16, 6-(4-(5-((5-tert-butyloxazol-2-yl)methylthio)-thiazol-2-ylamino)-4-oxobutylamino)-N-hydroxyhexanamide] | 100 to 1000 | – | – | –
20 | CC(C)(C)c1cnc(CSc2cnc(NC(=O)c3ccc(OCCCCC(=O)NO)cc3)s2)o1 [Compound 24, N-(5-((5-tert-butyloxazol-2-yl)methylthio)thiazol-2-yl)-4-(5-(hydroxyamino)-5-oxopentyloxy)benzamide] | – | < 100 | – | –
21 | CC(C)(C)c1cnc(CSc2cnc(NC(=O)c3cccc(/C=C/C(=O)NO)c3)s2)o1 [Compound 19, (E)-N-(5-((5-tert-butyloxazol-2-yl)methylthio)-thiazol-2-yl)-3-(3-(hydroxylamino)-3-oxoprop-1-enyl)benzamide] | 100 to 1000 | < 100 | – | –
22 | CC(C)(C)c1cnc(CSc2cnc(NC(=O)Cc3ccc(OCCC(=O)NO)cc3)s2)o1 [Compound 23, 3-(4-(2-(5-((5-tert-butyloxazol-2-yl)methylthio)-thiazol-2-ylamino)-2-oxoethyl)phenoxy)-N-hydroxypropanamide] | < 100 | < 100 | 93 to 95 | –
23 | CC(C)(C)c1cnc(CSc2nnc(NC(=O)CCCCCCC(=O)NO)s2)o1 [Compound 22, N^1-(5-((5-tert-butyloxazol-2-yl)methylthio)-1,3,4-thiadiazol-2-yl)-N^8-hydroxyoctanediamide] | – | 1000 to 10000 | – | –
24 | CC(C)(C)c1cnc(CSc2cnc(NC(=O)C(C)(C)c3ccc(OCCCC(=O)NO)cc3)s2)o1 [Compound 27, 4-(4-(1-(5-((5-Tert-butyloxazol-2-yl)methylthio)-thiazol-2-ylamino)-2-methyl-1-oxopropan-2-yl)phenoxy)-N-hydroxybutanamide] | 100 to 1000 | < 100 | – | –
25 | CC(C)(C)c1cnc(CSc2cnc(NCC3CCN(c4ncc(C(=O)NO)cn4)CC3)s2)o1 [Compound 21, 2-(4-((5-((5-tert-butyloxazol-2-yl)methylthio)-thiazol-2-ylamino)methyl)piperidin-1-yl)-N-hydroxypyrimidine-5-carboxamide] | < 100 | < 100 | – | –
26 | CC(C)(C)c1cnc(CSc2cnc(NC(=O)c3ccc(OCCCCCC(=O)NO)cc3)s2)o1 [Compound 25, N-(5-((5-tert-butyloxazol-2-yl)methylthio)thiazol-2-yl)-4-(6-(hydroxyamino)-6-oxohexyloxy)benzamide] | 100 to 1000 | < 100 | – | –
